Here are results for two molecules from patent US6849598B1, “Therapeutic compositions comprising bactericidal/permeability-increasing (BPI) protein products” (XOMA, priority 1995, dated 2005).

Converted amounts (≈) assume the structure as drawn. Like-named read-outs stand apart in the source and are kept apart here.

One data set relates to S. pneumoniae. As to the kind of experiment: Antibiotic susceptibility (MIC, Sensititre Trays) with rBPI21 poloxamer formulations. Format: cell-based. Conditions: for MIC: Streptococcus pneumoniae, read-out: Minimum Inhibitory Concentration. The procedure: The effect of therapeutic compositions of rBPI21 formulated with poloxamer, with or without EDTA, was evaluated on the antibiotic susceptibility of the multiple drug resistant A. baumannii, S. pneumoniae, E. faecium and P. aeruginosa organisms of Example 5. Therapeutic compositions were prepared containing 2 mg/mL rBPI21, (5 mM sodium citrate, 150 mM NaCl) with a 0.2% (w/v) concentration of PLURONIC F68, P103, P104, P105 or P123. The effect on the antibiotic susceptibility of the organisms was determined in Mueller-Hinton Broth plus Cations (CSMHB, Remel), or 40% pooled human serum in CSMHB (Sigma, St. Louis, Mo.), as follows.
Isolated colonies of the organism from overnight cultures were suspended in Microscan® Inoculum Water to a concentration equivalent to a 0.5 McFarland Standard (approximately 1×10^8 CFU/ml), determined using a Microscan® turbidimeter. Aliquots were transferred to either CSMHB or 40% pooled human serum in CSMHB. Each tube contained either a final concentration of 16 μg/mL rBPI21 or an equivalent volume of control buffer. Minimal inhibitory concentrations (MIC) for each antibiotic tested, i.e. the lowest concentration of antibiotic which inhibits visible growth, were determined using gram-negative (MB and MC) and gram-positive (MA) Sensititre Trays (Radiometer America, Westlake, Ohio), which allow for the rapid and simultaneous survey of a broad spectrum of standard antibiotics. Any other antimicrobial panel systems known in the art, such as the Microscan® (Dade Microscan, Sacramento, Calif.), Pasco (DIFCO, Detroit, Mich.) and Alamar (Alamar, Sacramento, Calif.) systems, may alternatively be used to assay for antibiotic susceptibility.
Tables 12-15 below display a summary of the results of the antibiotic screening panels, reported for each strain tested as the MIC of the tested antibiotics in the presence of the indicated rBPI21 therapeutic composition. The antibiotic susceptibility standards (interpretation of an MIC as clinically resistant (R), intermediate (I) or susceptible (S) according to NCCLS standards) applicable to the organism tested appear in superscript next to the MIC.

In data set [1] the test system is Candida albicans and Candida parapsilosis. Particulars: BPI at 10^−6 M; pH 7.0 or 5.5; cited from earlier work.
Data set [2] relates to human, rabbit and sheep red blood cells and several human tumor cell lines. Particulars: BPI at 10^−6 M; cited from earlier work.
Data set [3] concerns gram-positive organisms (Staphylococcus aureus, Staphylococcus epideimidis, Streptococcus faecalis, Bacillus subtilis, Micrococcus Iysodeikticus, Listeria …). Particulars: BPI at 10^−6 M or 160 μg/ml; pH of either 7.0 or 5.5; cited from earlier work.
The test system of the next data set is gram-negative bacteria. Particulars: broad range of gram-negative bacteria; Elsbach and Weiss (1992); cited from earlier work.
Setting [4] is: CSMHB, 16 μg/mL rBPI21 with F68.
Where [5] appears, read: CSMHB, 16 μg/mL rBPI21 with P103.
Where [6] appears, read: CSMHB, 16 μg/mL rBPI21 with P104.
Where [7] appears, read: CSMHB, 16 μg/mL rBPI21 with P105.
The mark [8] stands for this setting: CSMHB, 16 μg/mL rBPI21 with P123.
[9] abbreviates: Serum, 16 μg/mL rBPI21 with F68.
The mark [10] stands for this setting: Serum, 16 μg/mL rBPI21 with P103.
Setting [11] is: Serum, 16 μg/mL rBPI21 with P104.
Setting [12] is: Serum, 16 μg/mL rBPI21 with P105.
Where [13] appears, read: Serum, 16 μg/mL rBPI21 with P123.

`Cc1onc(-c2ccccc2)c1C(=O)N[C@@H]1C(=O)N2[C@@H]1SC(C)(C)[C@@H]2C(=O)O` [Oxacillin]: the “susceptibility interpretation of MIC (superscript)” value in the data set with S. pneumoniae (setting [4]) is given as “R”; in the data set with S. pneumoniae (setting [5]) it was “S”; in the data set with S. pneumoniae (setting [6]), “S”; in the data set on S. pneumoniae (setting [7]) it was “S”; in the data set with S. pneumoniae (setting [8]) it was “S”; in the data set with S. pneumoniae (CSMHB, Control (no BPI)) it was “R”. The “susceptibility interpretation of MIC (superscript)” value in the data set with S. pneumoniae (setting [9]) was “R”; with S. pneumoniae (setting [10]) it was “R”; in the data set on S. pneumoniae (setting [11]), “R”; in the data set with S. pneumoniae (setting [12]) it was “R”; with S. pneumoniae (setting [13]), “R”; in the data set with S. pneumoniae (Serum, Control (no BPI)) it was “R”. Moreover, the MIC in the data set on S. pneumoniae (setting [4]) is 32 µg/mL (≈ 79.7 µM); with S. pneumoniae (setting [5]), less than 0.25 µg/mL; in the data set with S. pneumoniae (setting [6]) it was 0.5 µg/mL (≈ 1.25 µM); in the data set on S. pneumoniae (setting [7]), 1 µg/mL (≈ 2.49 µM); in the data set with S. pneumoniae (setting [8]), 0.5 µg/mL (≈ 1.25 µM); in the data set with S. pneumoniae (CSMHB, Control (no BPI)) it was 32 µg/mL (≈ 79.7 µM). Moreover, the MIC in the data set with S. pneumoniae (setting [9]) was more than 32 µg/mL; in the data set on S. pneumoniae (setting [10]), 32 µg/mL (≈ 79.7 µM); in the data set with S. pneumoniae (setting [11]), 32 µg/mL (≈ 79.7 µM); in the data set on S. pneumoniae (setting [12]), 32 µg/mL (≈ 79.7 µM); with S. pneumoniae (setting [13]) it was 32 µg/mL (≈ 79.7 µM); in the data set with S. pneumoniae (Serum, Control (no BPI)), 32 µg/mL (≈ 79.7 µM).

B1: BPI: bactericidal/permeability-increasing protein isolated from granules of mammalian polymorphonuclear leukocytes (protein, UniProt P17213 32-487, looked up)
Bactericidal …: VNPGVVVRISQKGLDYASQQGTAALQKELKRIKIPDYSDSFKIKHLGKGHYSFYSMDIREFQLPSSQISMVPNVGLKFSISNANIKISGKWKAQKRFLKMSGNFDLSIEGMSISADLKLGSNPTSGKPTITCSSCSSHINSVHVHISKSKVGWLIQLFHKKIESALRNKMNSQVCEKVTNSVSSELQPYFQTLPVMTKIDSVAGINYGLVAPPATTAETLDVQMKGEFYSENHHNPPPFAPPVMEFPAAHDRMVYLGLSDYFFNTAGLVYQEAGVLKMTLRDDMIPKESKFRLTTKFFGTFLPEVAKKFPNMKIQIHVSASTPPHLSVQPTGLTFYPAVDVQAFAVLPNSSLASLFLIGMHTTGSMEVSAESNRLVGELKLDRLLLELKHSNIGPFPVELLQDIMNYIVPILVLPRVNEKLQKGFPLPTPARVQLYNVVLQPHQNFLLFGADVVYK
For the molecule B1, in data set [1], the “toxic effect on fungi” value is “no toxic effect”. The “toxicity to higher eukaryotic cells” value in data set [2] is reported as “non-toxic”. The “toxic effect on gram-positive organisms” value in data set [3] is “no toxic effect”. In addition, the “concentrations at which BPI exhibits anti-bacterial activity (as low as)” value in the data set on gram-negative bacteria was 10^−8 to 10^−9 M.
